Source: patent US6424857B1, “Use of acousto-optical and sonoluminescene contrast agents” (Amersham Health AS, priority 1997, dated 2002)

Assay: Solubility in water and sesame oil

Oc1ccc2ccccc2c1N=Nc1ccc(N=Nc2ccccc2)cc1 [Sudan III]
solubility in sesame oil (sesame oil): soluble | solubility in water (water): very water insoluble
